Experimental data reported in ChEMBL document CHEMBL3507680, “University of Dundee, Gates Library screen for HepG2 cell viability”.

Test: Human HepG2 cell viability assay in 384 well format
Format: toxicity, cell-based
Parameters: dose 125 nL, time 70.5 hour; cytotoxicity at 70.5 h: concentration not given beside the values
Details: HepG2 cells, read-out: Inhibition

Structure (SMILES) | cytotoxicity at 70.5 h
COc1cccc(NC(=O)NC(C)c2ccc3c(c2)CC(=O)N3)c1 (stereo not drawn) | -3.09%
Cn1ccnc1CNC(=O)Nc1ccc(OC2CCC2)c(F)c1 | 20%
O=C(Cc1ccon1)NC1CC2(CCC2)Oc2ccccc21 (stereo not drawn) | 4.31%
CC(=O)NCCCOc1c(C)cccc1Cl | -2.28%
CC(=O)NCCOc1c(C)cccc1C | -4.39%
O=C(CN1CCN(CCO)CC1)NCCc1c(F)cccc1F | -1.38%
Cc1cccc(CCC(=O)NCC2CCCN2c2cccnn2)c1 (stereo not drawn) | 5.29%
O=C(CNCC1CCCN1c1cccnn1)NCCc1cccs1 (stereo not drawn) | -1.9%
Cc1ccccc1CN1CCCN(CCN2CCOC2=O)CC1 | -1.61%
CN(CCCNC(=O)CN1CCS(=O)(=O)CC1)c1ccccc1 | -6.59%
CCC(C)NC(=O)c1ccc(CNC(=O)CCC(C)C)cc1 (stereo not drawn) | 15.4%
CC1CCCCN1Cc1nc(C2CC2)no1 (stereo not drawn) | -4.41%
CN(Cc1ccccc1OC(F)(F)F)C(=O)C1CCCN(C(N)=O)C1 (stereo not drawn) | -6.37%
COCCN(C)C(=O)Nc1ccc(C(=O)NCCC(=O)OC)cc1 | -8.51%
CCCN(C)C(=O)Nc1ccc(C(=O)NCCC(=O)OC)cc1 | -6.01%
COC(=O)C1CN(CC(=O)Nc2cc(F)ccc2F)c2ccccc21 (stereo not drawn) | -7.21%
COC(=O)C1CN(CC(=O)Nc2ccccc2Cl)c2ccccc21 (stereo not drawn) | -5.02%
O=C(NCc1cccc(N2CC=CC2)c1)NCC(F)(F)F | -2.26%
O=C(NCc1cccc(N2CC=CC2)c1)NC1CC1 | -2.22%
CC(C)(C)OC(=O)NCC1CCN(C(=O)c2ccc(F)cc2F)C1 (stereo not drawn) | -4.74%
CC(C)(C)OC(=O)NCC1CCN(C(=O)c2ccccc2O)C1 (stereo not drawn) | -0.832%
Cc1cnc(CNC(=O)NCCOc2ncccc2Cl)s1 | -3.34%

Structure (SMILES) | cytotoxicity at 70.5 h
CC(C)c1cc(CNC(=O)NCc2cccc(N3CC=CC3)c2)on1 | -3.2%
Cc1cnc(CCNC(=O)NCCOc2ncccc2Cl)s1 | -2.69%
Cc1cnc(NC(=O)NCCOc2ncccc2Cl)s1 | -4.99%
CN(C)c1ncc(NC(=O)N2CCC(CN3CCCC3)C2)cn1 (stereo not drawn) | 0.1%
CCC(C)(NCC(=O)NC(=O)NC)c1nccs1 (stereo not drawn) | -4.72%
Cc1ccccc1-n1cnnc1SCCOCC1CCCO1 (stereo not drawn) | -5%
COC(=O)N1CCC(Nc2cccc(F)c2C(C)=O)CC1 | -10.1%
CC(C)(C)S(=O)(=O)CCNC1CSCCc2ccccc21 (stereo not drawn) | 27.7%
CCN(CC(F)(F)F)C(=O)C1CCCN(Cc2cscn2)C1 (stereo not drawn) | 26.1%
Oc1ccc2oc3c(c2c1CN1CCOCC1)CCCC3 | -8.06%
CNC(=O)c1cccc(NC(=O)NCc2ccccc2)c1C | -10.1%
CS(=O)(=O)N1CCN(Cc2c(O)ccc3oc4c(c23)CCCC4)CC1 | -10.3%
Cc1nn(C)c(N2CCOCC2)c1CNCC1CCN(C2CC2)C1 (stereo not drawn) | 15.8%
CC(=O)NCC1CN(c2ccc3c(Cl)ccnc3c2F)CCO1 (stereo not drawn) | -7.29%
COc1ccc2cccc(CC(=O)NCCc3n[nH]c(=O)[nH]3)c2c1 | -8.41%
COc1ccc2cccc(CC(=O)NCCCc3n[nH]c(C)n3)c2c1 | 4.93%
O=S(=O)(NCCN1CC=CC1)c1cncc(Cl)c1 | -0.531%
O[C@@H]1CCN(c2ccc3c(Cl)ccnc3c2F)C1 | -8.44%
Cn1ccnc1CCNC(=O)NCCC1CCCCO1 (stereo not drawn) | -2.69%
COc1cc(CNCC2CN(C3CC3)CCO2)cc(OC)c1 (stereo not drawn) | -2.94%
CC(C)c1cc(=O)[nH]c(C(C)(C)N)n1 | -3.05%
